According to the NIST ThermoML archive (doi:10.1016/j.jct.2006.10.017):
± gives the expanded uncertainty stated by the source.

Assays:
[1] = xn = mol fraction of the nth substance listed; details: 101 kPa, Liquid
[2] = refractive index (Na D-line) (dimensionless); xn = mol fraction of the nth substance listed; details: 101 kPa, Liquid

SMILES: CCCCCCn1cc[n+](C)c1.F[P-](F)(F)(F)(F)F [1-hexyl-3-methylimidazolium hexafluorophosphate] + CCO
- mass density ([1]; 293.15 K, x1 = 0.0198): 830 ± 0.9 kg/m3
- speed of sound ([1]; 293.15 K, x1 = 0.0198): 1164 ± 10 m/s
- mass density ([1]; 293.15 K, x1 = 0.2033): 1055.6 ± 0.6 kg/m3
- speed of sound ([1]; 293.15 K, x1 = 0.2033): 1248 ± 10 m/s
- mass density ([1]; 293.15 K, x1 = 0.312): 1125.6 ± 0.8 kg/m3
- speed of sound ([1]; 293.15 K, x1 = 0.312): 1300 ± 11 m/s
- mass density ([1]; 293.15 K, x1 = 0.3897): 1161.8 ± 1 kg/m3
- speed of sound ([1]; 293.15 K, x1 = 0.3897): 1329 ± 11 m/s
- mass density ([1]; 293.15 K, x1 = 0.5002): 1201.4 ± 1.2 kg/m3
- speed of sound ([1]; 293.15 K, x1 = 0.5002): 1360 ± 11 m/s
- mass density ([1]; 293.15 K, x1 = 0.5982): 1228.4 ± 1.5 kg/m3
- speed of sound ([1]; 293.15 K, x1 = 0.5982): 1380 ± 11 m/s
- mass density ([1]; 293.15 K, x1 = 0.6961): 1250.2 ± 1.7 kg/m3
- speed of sound ([1]; 293.15 K, x1 = 0.6961): 1396 ± 11 m/s
- mass density ([1]; 293.15 K, x1 = 0.7902): 1267.6 ± 1.9 kg/m3
- speed of sound ([1]; 293.15 K, x1 = 0.7902): 1410 ± 11 m/s
- mass density ([1]; 293.15 K, x1 = 0.9033): 1285.2 ± 2.2 kg/m3
- speed of sound ([1]; 293.15 K, x1 = 0.9033): 1423 ± 11 m/s
- mass density ([1]; 293.15 K, x1 = 0.992): 1297 ± 2.5 kg/m3
- speed of sound ([1]; 293.15 K, x1 = 0.992): 1435 ± 12 m/s
- mass density ([1]; 293.15 K, x1 = 1): 1297.9 ± 2.5 kg/m3
- speed of sound ([1]; 293.15 K, x1 = 1): 1438 ± 12 m/s
- mass density ([1]; 298.15 K, x1 = 0.0198): 825.8 ± 0.9 kg/m3
- speed of sound ([1]; 298.15 K, x1 = 0.0198): 1150 ± 10 m/s
- mass density ([1]; 298.15 K, x1 = 0.0465): 873.5 ± 0.7 kg/m3
- speed of sound ([1]; 298.15 K, x1 = 0.0465): 1160 ± 10 m/s
- mass density ([1]; 298.15 K, x1 = 0.0991): 948.7 ± 0.5 kg/m3
- speed of sound ([1]; 298.15 K, x1 = 0.0991): 1185 ± 10 m/s
- mass density ([1]; 298.15 K, x1 = 0.2033): 1051.6 ± 0.5 kg/m3
- speed of sound ([1]; 298.15 K, x1 = 0.2033): 1237 ± 10 m/s
- mass density ([1]; 298.15 K, x1 = 0.312): 1121.5 ± 0.8 kg/m3
- speed of sound ([1]; 298.15 K, x1 = 0.312): 1288 ± 11 m/s
- mass density ([1]; 298.15 K, x1 = 0.3897): 1157.7 ± 1 kg/m3
- speed of sound ([1]; 298.15 K, x1 = 0.3897): 1317 ± 11 m/s
- mass density ([1]; 298.15 K, x1 = 0.5002): 1197.2 ± 1.2 kg/m3
- speed of sound ([1]; 298.15 K, x1 = 0.5002): 1348 ± 11 m/s
- mass density ([1]; 298.15 K, x1 = 0.5982): 1224.4 ± 1.4 kg/m3
- speed of sound ([1]; 298.15 K, x1 = 0.5982): 1368 ± 11 m/s
- mass density ([1]; 298.15 K, x1 = 0.6961): 1246.2 ± 1.7 kg/m3
- speed of sound ([1]; 298.15 K, x1 = 0.6961): 1384 ± 11 m/s
- mass density ([1]; 298.15 K, x1 = 0.7902): 1263.5 ± 1.9 kg/m3
- speed of sound ([1]; 298.15 K, x1 = 0.7902): 1397 ± 11 m/s
- mass density ([1]; 298.15 K, x1 = 0.9033): 1281.1 ± 2.2 kg/m3
- speed of sound ([1]; 298.15 K, x1 = 0.9033): 1410 ± 11 m/s
- mass density ([1]; 298.15 K, x1 = 0.992): 1292.8 ± 2.5 kg/m3
- speed of sound ([1]; 298.15 K, x1 = 0.992): 1421 ± 11 m/s
- mass density ([1]; 298.15 K, x1 = 1): 1293.7 ± 2.5 kg/m3
- speed of sound ([1]; 298.15 K, x1 = 1): 1424 ± 11 m/s
- mass density ([1]; 303.15 K, x1 = 0.0198): 821.8 ± 0.9 kg/m3
- speed of sound ([1]; 303.15 K, x1 = 0.0198): 1134 ± 10 m/s
- mass density ([1]; 303.15 K, x1 = 0.0465): 869.8 ± 0.7 kg/m3
- speed of sound ([1]; 303.15 K, x1 = 0.0465): 1144 ± 10 m/s
- mass density ([1]; 303.15 K, x1 = 0.0991): 944.8 ± 0.5 kg/m3
- speed of sound ([1]; 303.15 K, x1 = 0.0991): 1169 ± 10 m/s
- mass density ([1]; 303.15 K, x1 = 0.2033): 1047.5 ± 0.5 kg/m3
- speed of sound ([1]; 303.15 K, x1 = 0.2033): 1226 ± 10 m/s
- mass density ([1]; 303.15 K, x1 = 0.312): 1117.3 ± 0.8 kg/m3
- speed of sound ([1]; 303.15 K, x1 = 0.312): 1277 ± 10 m/s
- mass density ([1]; 303.15 K, x1 = 0.3897): 1153.6 ± 0.9 kg/m3
- speed of sound ([1]; 303.15 K, x1 = 0.3897): 1306 ± 11 m/s
- mass density ([1]; 303.15 K, x1 = 0.5002): 1193.3 ± 1.2 kg/m3
- speed of sound ([1]; 303.15 K, x1 = 0.5002): 1336 ± 11 m/s
- mass density ([1]; 303.15 K, x1 = 0.5982): 1220.4 ± 1.4 kg/m3
- speed of sound ([1]; 303.15 K, x1 = 0.5982): 1357 ± 11 m/s
- mass density ([1]; 303.15 K, x1 = 0.6961): 1242.2 ± 1.7 kg/m3
- speed of sound ([1]; 303.15 K, x1 = 0.6961): 1372 ± 11 m/s
- mass density ([1]; 303.15 K, x1 = 0.7902): 1259.5 ± 1.9 kg/m3
- speed of sound ([1]; 303.15 K, x1 = 0.7902): 1386 ± 11 m/s
- mass density ([1]; 303.15 K, x1 = 0.9033): 1277 ± 2.2 kg/m3
- speed of sound ([1]; 303.15 K, x1 = 0.9033): 1399 ± 11 m/s
- mass density ([1]; 303.15 K, x1 = 0.992): 1288.7 ± 2.5 kg/m3
- speed of sound ([1]; 303.15 K, x1 = 0.992): 1409 ± 11 m/s
- mass density ([1]; 303.15 K, x1 = 1): 1289.6 ± 2.5 kg/m3
- speed of sound ([1]; 303.15 K, x1 = 1): 1411 ± 11 m/s
- refractive index ([2]; 293.15 K, x1 = 0.0198): 1.36597 ± 0.0013
- refractive index ([2]; 293.15 K, x1 = 0.2033): 1.39358 ± 0.0013
- refractive index ([2]; 293.15 K, x1 = 0.312): 1.40092 ± 0.0013
- refractive index ([2]; 293.15 K, x1 = 0.3897): 1.40471 ± 0.0013
- refractive index ([2]; 293.15 K, x1 = 0.5002): 1.40893 ± 0.0013
- refractive index ([2]; 293.15 K, x1 = 0.5982): 1.41163 ± 0.0013
- refractive index ([2]; 293.15 K, x1 = 0.6961): 1.41394 ± 0.0013
- refractive index ([2]; 293.15 K, x1 = 0.7902): 1.41562 ± 0.0013
- refractive index ([2]; 293.15 K, x1 = 0.9033): 1.41784 ± 0.0013
- refractive index ([2]; 293.15 K, x1 = 0.992): 1.41884 ± 0.0013
- refractive index ([2]; 293.15 K, x1 = 1): 1.41923 ± 0.0013
- refractive index ([2]; 298.15 K, x1 = 0.0198): 1.36482 ± 0.0013
- refractive index ([2]; 298.15 K, x1 = 0.0465): 1.37109 ± 0.0013
- refractive index ([2]; 298.15 K, x1 = 0.0991): 1.38024 ± 0.0013
- refractive index ([2]; 298.15 K, x1 = 0.2033): 1.3921 ± 0.0013
- refractive index ([2]; 298.15 K, x1 = 0.312): 1.39964 ± 0.0013
- refractive index ([2]; 298.15 K, x1 = 0.3897): 1.40388 ± 0.0013
- refractive index ([2]; 298.15 K, x1 = 0.5002): 1.4081 ± 0.0013
- refractive index ([2]; 298.15 K, x1 = 0.5982): 1.41098 ± 0.0013
- refractive index ([2]; 298.15 K, x1 = 0.6961): 1.41313 ± 0.0013
- refractive index ([2]; 298.15 K, x1 = 0.7902): 1.41472 ± 0.0013
- refractive index ([2]; 298.15 K, x1 = 0.9033): 1.41645 ± 0.0013
- refractive index ([2]; 298.15 K, x1 = 0.992): 1.41775 ± 0.0013
- refractive index ([2]; 298.15 K, x1 = 1): 1.41787 ± 0.0013
- refractive index ([2]; 303.15 K, x1 = 0.0198): 1.36297 ± 0.0013
- refractive index ([2]; 303.15 K, x1 = 0.0465): 1.36941 ± 0.0013
- refractive index ([2]; 303.15 K, x1 = 0.0991): 1.3787 ± 0.0014
- refractive index ([2]; 303.15 K, x1 = 0.2033): 1.39057 ± 0.0014
- refractive index ([2]; 303.15 K, x1 = 0.312): 1.39816 ± 0.0013
- refractive index ([2]; 303.15 K, x1 = 0.3897): 1.40239 ± 0.0013
- refractive index ([2]; 303.15 K, x1 = 0.5002): 1.40693 ± 0.0013
- refractive index ([2]; 303.15 K, x1 = 0.5982): 1.40986 ± 0.0013
- refractive index ([2]; 303.15 K, x1 = 0.6961): 1.41197 ± 0.0013
- refractive index ([2]; 303.15 K, x1 = 0.7902): 1.41366 ± 0.0013
- refractive index ([2]; 303.15 K, x1 = 0.9033): 1.41525 ± 0.0013
- refractive index ([2]; 303.15 K, x1 = 0.992): 1.41635 ± 0.0013
- refractive index ([2]; 303.15 K, x1 = 1): 1.41643 ± 0.0013
